According to ChEMBL document CHEMBL5543142, “Discovery of YFJ-36: Design, Synthesis, and Antibacterial Activities of Catechol-Conjugated β-Lactams against Gram-Negative Bacteria” (J Med Chem, 2024):

Key:
Format in all cases: functional
Details in all cases: time 18-20 hrs
[1] = test system: Acinetobacter baumannii; assay: Antibacterial activity against OXA-23 producing multidrug-resistant Acinetobacter baumannii clinical isolate 15-2 assessed as inhibition of bacterial growth incubated for 18 to 20 hrs by two fold serial dilution assay
[2] = test system: Pseudomonas aeruginosa; assay: Antibacterial activity against Pseudomonas aeruginosa ATCC 27853 assessed as inhibition of bacterial growth incubated for 18 to 20 hrs by two fold serial dilution assay
[3] = test system: Acinetobacter baumannii; assay: Antibacterial activity against OXA-23 producing multidrug-resistant Acinetobacter baumannii clinical isolate 15-3 assessed as inhibition of bacterial growth incubated for 18 to 20 hrs by two fold serial dilution assay
[4] = test system: Escherichia coli; assay: Antibacterial activity against ESBL-producing multidrug-resistant Escherichia coli clinical isolate 14-1 assessed as inhibition of bacterial growth incubated for 18 to 20 hrs by two fold serial dilution assay
[5] = test system: Klebsiella pneumoniae; assay: Antibacterial activity against KPC-2 producing multidrug-resistant Klebsiella pneumoniae clinical isolate 15-2 assessed as inhibition of bacterial growth incubated for 18 to 20 hrs by two fold serial dilution assay
[6] = test system: Pseudomonas aeruginosa; assay: Antibacterial activity against IMP-4 producing multidrug-resistant Pseudomonas aeruginosa clinical isolate 15-4 assessed as inhibition of bacterial growth incubated for 18 to 20 hrs by two fold serial dilution assay
[7] = test system: Acinetobacter baumannii; assay: Antibacterial activity against OXA-23 producing multidrug-resistant Acinetobacter baumannii clinical isolate 15-1 assessed as inhibition of bacterial growth incubated for 18 to 20 hrs by two fold serial dilution assay
[8] = test system: Pseudomonas aeruginosa; assay: Antibacterial activity against IMP-4 producing multidrug-resistant Pseudomonas aeruginosa clinical isolate 15-5 assessed as inhibition of bacterial growth incubated for 18 to 20 hrs by two fold serial dilution assay
[9] = test system: Escherichia coli; assay: Antibacterial activity against ESBL-producing multidrug-resistant Escherichia coli clinical isolate 14-2 assessed as inhibition of bacterial growth incubated for 18 to 20 hrs by two fold serial dilution assay
[10] = test system: Klebsiella pneumoniae; assay: Antibacterial activity against KPC-2 producing multidrug-resistant Klebsiella pneumoniae clinical isolate 15-1 assessed as inhibition of bacterial growth incubated for 18 to 20 hrs by two fold serial dilution assay
[11] = test system: Acinetobacter baumannii; assay: Antibacterial activity against OXA-23 producing multidrug-resistant Acinetobacter baumannii clinical isolate 15-5 assessed as inhibition of bacterial growth incubated for 18 to 20 hrs by two fold serial dilution assay
[12] = test system: Klebsiella pneumoniae; assay: Antibacterial activity against KPC-2 producing multidrug-resistant Klebsiella pneumoniae clinical isolate 15-3 assessed as inhibition of bacterial growth incubated for 18 to 20 hrs by two fold serial dilution assay
[13] = test system: Pseudomonas aeruginosa; assay: Antibacterial activity against IMP-4 producing multidrug-resistant Pseudomonas aeruginosa clinical isolate 15-1 assessed as inhibition of bacterial growth incubated for 18 to 20 hrs by two fold serial dilution assay
[14] = test system: Acinetobacter baumannii; assay: Antibacterial activity against OXA-23 producing multidrug-resistant Acinetobacter baumannii clinical isolate 15-4 assessed as inhibition of bacterial growth incubated for 18 to 20 hrs by two fold serial dilution assay
[15] = test system: Klebsiella pneumoniae; assay: Antibacterial activity against KPC-2 producing multidrug-resistant Klebsiella pneumoniae clinical isolate 15-5 assessed as inhibition of bacterial growth incubated for 18 to 20 hrs by two fold serial dilution assay
[16] = test system: Escherichia coli; assay: Antibacterial activity against ESBL-producing multidrug-resistant Escherichia coli clinical isolate 14-4 assessed as inhibition of bacterial growth incubated for 18 to 20 hrs by two fold serial dilution assay

SMILES | MIC [1] [µg/mL] | MIC [2] [µg/mL] | MIC [3] [µg/mL] | MIC [4] [µg/mL] | MIC [5] [µg/mL] | MIC [6] [µg/mL] | MIC [7] [µg/mL] | MIC [8] [µg/mL] | MIC [9] [µg/mL] | MIC [10] [µg/mL] | MIC [11] [µg/mL] | MIC [12] [µg/mL] | MIC [13] [µg/mL] | MIC [14] [µg/mL] | MIC [15] [µg/mL] | MIC [16] [µg/mL]
CC(C)(C)C(O/N=C(\C(=O)N[C@@H]1C(=O)N2C(C(=O)O)=C(CSCCNC(=O)c3ccc(O)c(O)c3Cl)CS[C@H]12)c1csc(N)n1)C(=O)O.O=C(O)C(F)(F)F (some centres undefined) | 1 | 4 | 2 | 0.06 | 1 | 8 | 2 | 4 | 1 | 0.25 | 2 | 16 | 4 | 1 | 0.5 | 2
CC(C)(O/N=C(\C(=O)N[C@@H]1C(=O)N2C(C(=O)O)=C(CSCCOCCNC(=O)c3ccc(O)c(O)c3Cl)CS[C@H]12)c1csc(N)n1)C(=O)O.O=C(O)C(F)(F)F | 32 | 4 | 32 | 0.25 | 4 | 1 | 32 | 2 | 2 | 8 | 32 | 8 | 1 | 64 | 4 | 32
CC(C)(O/N=C(\C(=O)N[C@@H]1C(=O)N2C(C(=O)O)=C(CS[C@@H]3C[C@H]4CC[C@@H](C3)N4C(=O)c3ccc(O)c(O)c3Cl)CS[C@H]12)c1csc(N)n1)C(=O)O.O=C(O)C(F)(F)F | 64 | 2 | 64 | 0.25 | 1 | 16 | 64 | 16 | 16 | 2 | > 64 | 64 | 16 | > 64 | 1 | 16
Nc1nc(/C(=N/OC2(C(=O)O)CCC2)C(=O)N[C@@H]2C(=O)N3C(C(=O)O)=C(CSCCNC(=O)c4ccc(O)c(O)c4Cl)CS[C@H]23)cs1.O=C(O)C(F)(F)F | 32 | 2 | 32 | 0.25 | 4 | 1 | 32 | 2 | 2 | 2 | 32 | 8 | 1 | 32 | 4 | 32
CC(C)C(O/N=C(\C(=O)N[C@@H]1C(=O)N2C(C(=O)O)=C(CS[C@H]3CC[C@@H](NC(=O)c4ccc(O)c(O)c4Cl)CC3)CS[C@H]12)c1csc(N)n1)C(=O)O.O=C(O)C(F)(F)F (some centres undefined) | 16 | 2 | 32 | 0.125 | 2 | 2 | 32 | 8 | 2 | 2 | 16 | 4 | 8 | 16 | 2 | 16
CC(C)(O/N=C(\C(=O)N[C@@H]1C(=O)N2C(C(=O)O)=C(CS[C@H]3CC[C@@H](NC(=O)c4ccc(O)c(O)c4Cl)CC3)CS[C@H]12)c1csc(N)n1)C(=O)O.O=C(O)C(F)(F)F | 32 | 8 | 32 | 0.125 | 4 | 1 | 32 | 2 | 4 | 4 | 32 | 4 | 1 | 32 | 8 | 1
Nc1nc(/C(=N/OC2(C(=O)O)CC2)C(=O)N[C@@H]2C(=O)N3C(C(=O)O)=C(CSCCNC(=O)c4ccc(O)c(O)c4Cl)CS[C@H]23)cs1.O=C(O)C(F)(F)F | 64 | 4 | 32 | 0.5 | 32 | 1 | 64 | 4 | 2 | 16 | 64 | > 64 | 1 | 64 | 32 | 64
CC(C)C(O/N=C(\C(=O)N[C@@H]1C(=O)N2C(C(=O)O)=C(CSCCNC(=O)c3ccc(O)c(O)c3Cl)CS[C@H]12)c1csc(N)n1)C(=O)O.O=C(O)C(F)(F)F (some centres undefined) | 4 | 8 | 4 | 0.06 | 0.5 | 4 | 8 | 4 | 2 | 0.5 | 4 | 0.5 | 2 | 4 | 0.25 | 0.5
CC(C)(C)C(O/N=C(\C(=O)N[C@@H]1C(=O)N2C(C(=O)O)=C(CS[C@H]3CC[C@@H](NC(=O)c4ccc(O)c(O)c4Cl)CC3)CS[C@H]12)c1csc(N)n1)C(=O)O.O=C(O)C(F)(F)F (some centres undefined) | 4 | 8 | 8 | 0.5 | 16 | 16 | 8 | 8 | 4 | 4 | 8 | 32 | 8 | 4 | 1 | 4
